# Measured values taken from PubChem BioAssay (NCI).
#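 Values below derive from 48-hour exposures of cells grown in 96-well plates, with endpoints linearly interpolated between the two concentrations bracketing the appropriate inhibition level. GI50 marks 50% less growth. TGI: concentration producing complete growth inhibition.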
# Legend:
# Experiment in all cases: NCI tumour cell line growth inhibition, 48 h
# [1] = system: 786-0 renal
# [2] = system: A498 renal
# [3] = system: A549 NSCLC
# [4] = system: ACHN renal
# [5] = system: BT-549 breast
# [6] = system: CAKI-1 renal
# [7] = system: CCRF-CEM leukemia
# [8] = system: COLO 205 colon
# [9] = system: DU-145 prostate
# [10] = system: EKVX NSCLC
# [11] = system: HCC-2998 colon
# [12] = system: HCT-116 colon
# [13] = system: HCT-15 colon
# [14] = system: HL-60(TB) leukemia
# [15] = system: HOP-62 NSCLC
# [16] = system: HOP-92 NSCLC
# [17] = system: HS 578T breast
# [18] = system: HT29 colon
# [19] = system: IGROV1 ovarian
# [20] = system: K-562 leukemia
# [21] = system: KM12 colon
# [22] = system: LOX IMVI melanoma
# [23] = system: M14 melanoma
# [24] = system: MALME-3M melanoma
# [25] = system: MCF7 breast
# [26] = system: MDA-MB-231 breast
# [27] = system: MDA-MB-435
# [28] = system: MOLT-4 leukemia
# [29] = system: NCI-H226 lung
# [30] = system: NCI-H23 lung
# [31] = system: NCI-H460 lung
# [32] = system: NCI/ADR-RES ovarian
# [33] = system: OVCAR-3 ovarian
# [34] = system: OVCAR-4 ovarian
# [35] = system: OVCAR-5 ovarian
# [36] = system: OVCAR-8 ovarian
# [37] = system: PC-3 prostate
# [38] = system: RPMI-8226 leukemia
# [39] = system: RXF 393 renal
# [40] = system: SF-268 CNS
# [41] = system: SF-295 CNS
# [42] = system: SF-539 CNS
# [43] = system: SK-MEL-2 melanoma
# [44] = system: SK-MEL-28 melanoma
# [45] = system: SK-MEL-5 melanoma
# [46] = system: SK-OV-3 ovarian
# [47] = system: SN12C renal
# [48] = system: SNB-19 CNS
# [49] = system: SNB-75 CNS
# [50] = system: SR leukemia
# [51] = system: SW-620 colon
# [52] = system: T-47D breast
# [53] = system: TK-10 renal
# [54] = system: U251 CNS
# [55] = system: UACC-257 melanoma
# [56] = system: UACC-62 melanoma
# [57] = system: UO-31 renal
compound,measurement,setting,value
N#C/C(=N\Nc1ccc(F)cc1)C(=O)Nc1cc(-c2ccccc2)nn1-c1ccccc1,GI50,[1],3.41 µM
same,TGI,[1],14 µM
same,GI50,[2],0.141 µM
same,TGI,[2],2.86 µM
same,GI50,[3],2.45 µM
same,TGI,[3],15.6 µM
same,GI50,[4],2.55 µM
same,TGI,[4],10.5 µM
same,GI50,[5],2.11 µM
same,TGI,[5],11.2 µM
same,GI50,[6],1.56 µM
same,TGI,[6],8.72 µM
same,GI50,[7],1.21 µM
same,TGI,[7],9.31 µM
same,GI50,[8],1.82 µM
same,TGI,[8],3.6 µM
same,GI50,[9],3.62 µM
same,TGI,[9],20.8 µM
same,GI50,[10],2.84 µM
same,TGI,[10],15.3 µM
same,GI50,[11],3.61 µM
same,TGI,[11],19.3 µM
same,GI50,[12],2.16 µM
same,TGI,[12],11.5 µM
same,GI50,[13],2.34 µM
same,TGI,[13],45.4 µM
same,GI50,[14],1.89 µM
same,TGI,[14],5.43 µM
same,GI50,[15],2.69 µM
same,TGI,[15],11.2 µM
same,GI50,[16],0.427 µM
same,TGI,[16],3.85 µM
same,GI50,[17],3.39 µM
same,TGI,[17],53.8 µM
same,GI50,[18],3.07 µM
same,TGI,[18],11.6 µM
same,GI50,[19],3.69 µM
same,TGI,[19],18.3 µM
same,GI50,[20],1.45 µM
same,TGI,[20],12.8 µM
same,GI50,[21],2.75 µM
same,TGI,[21],33.4 µM
same,GI50,[22],4.54 µM
same,TGI,[22],17.7 µM
same,GI50,[23],2.84 µM
same,TGI,[23],> 100 µM
same,GI50,[24],1.85 µM
same,TGI,[24],13.4 µM
same,GI50,[25],2.11 µM
same,TGI,[25],11.4 µM
same,GI50,[26],1.99 µM
same,TGI,[26],5.6 µM
same,GI50,[27],2.55 µM
same,TGI,[27],> 100 µM
same,GI50,[28],2.16 µM
same,TGI,[28],9.92 µM
same,GI50,[29],2.84 µM
same,TGI,[29],13.7 µM
same,GI50,[30],1.75 µM
same,TGI,[30],10.6 µM
same,GI50,[31],2.02 µM
same,TGI,[31],10.2 µM
same,GI50,[32],2.85 µM
same,TGI,[32],12.1 µM
same,GI50,[33],2.4 µM
same,TGI,[33],15.6 µM
same,GI50,[34],2.39 µM
same,TGI,[34],21.8 µM
same,GI50,[35],3.52 µM
same,TGI,[35],17.2 µM
same,GI50,[36],2.61 µM
same,TGI,[36],63.8 µM
same,GI50,[37],1.77 µM
same,TGI,[37],8.7 µM
same,GI50,[38],0.75 µM
same,TGI,[38],4.48 µM
same,GI50,[39],2.24 µM
same,TGI,[39],7 µM
same,GI50,[40],2.37 µM
same,TGI,[40],25.9 µM
same,GI50,[41],1.66 µM
same,TGI,[41],5.75 µM
same,GI50,[42],3.26 µM
same,TGI,[42],12.8 µM
same,GI50,[43],1.22 µM
same,TGI,[43],5.01 µM
same,GI50,[44],3.35 µM
same,TGI,[44],77.2 µM
same,GI50,[45],0.821 µM
same,TGI,[45],3.16 µM
same,GI50,[46],1.61 µM
same,TGI,[46],6.39 µM
same,GI50,[47],1.83 µM
same,TGI,[47],8.45 µM
same,GI50,[48],2.99 µM
same,TGI,[48],13.4 µM
same,GI50,[49],1.93 µM
same,TGI,[49],8.45 µM
same,GI50,[50],2.27 µM
same,TGI,[50],8.74 µM
same,GI50,[51],3.16 µM
same,TGI,[51],20.4 µM
same,GI50,[52],1.63 µM
same,TGI,[52],> 100 µM
same,GI50,[53],3.43 µM
same,TGI,[53],16.2 µM
same,GI50,[54],3.04 µM
same,TGI,[54],13.2 µM
same,GI50,[55],1.54 µM
same,TGI,[55],8.69 µM
same,GI50,[56],0.853 µM
same,TGI,[56],17 µM
same,GI50,[57],2.5 µM
same,TGI,[57],13.4 µM
